Experimental data as given in patent US4414207A, “Rutin poly(H-)sulfate salts and related compounds” (American Cyanamid Company, priority 1982, dated 1983).

How the values were obtained:
activated human C1 = molecular target: T1, activated human C1 (Homo sapiens, UniProt P09871); assay: Test Code 026 (C1 inhibitor); type: biochemical; settings: serial dilution assay, twofold dilutions; higher well number indicates higher activity
T1 sequence (P09871 438-688 limits assumed): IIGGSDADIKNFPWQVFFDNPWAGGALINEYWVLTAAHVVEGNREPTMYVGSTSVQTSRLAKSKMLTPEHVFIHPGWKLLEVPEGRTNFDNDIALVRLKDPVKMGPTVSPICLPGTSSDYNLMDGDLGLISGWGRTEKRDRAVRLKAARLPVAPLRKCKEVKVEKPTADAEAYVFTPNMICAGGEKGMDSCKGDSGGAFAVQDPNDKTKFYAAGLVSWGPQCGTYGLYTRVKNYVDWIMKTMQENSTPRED
T1 sequence (P09871 16-437 limits assumed): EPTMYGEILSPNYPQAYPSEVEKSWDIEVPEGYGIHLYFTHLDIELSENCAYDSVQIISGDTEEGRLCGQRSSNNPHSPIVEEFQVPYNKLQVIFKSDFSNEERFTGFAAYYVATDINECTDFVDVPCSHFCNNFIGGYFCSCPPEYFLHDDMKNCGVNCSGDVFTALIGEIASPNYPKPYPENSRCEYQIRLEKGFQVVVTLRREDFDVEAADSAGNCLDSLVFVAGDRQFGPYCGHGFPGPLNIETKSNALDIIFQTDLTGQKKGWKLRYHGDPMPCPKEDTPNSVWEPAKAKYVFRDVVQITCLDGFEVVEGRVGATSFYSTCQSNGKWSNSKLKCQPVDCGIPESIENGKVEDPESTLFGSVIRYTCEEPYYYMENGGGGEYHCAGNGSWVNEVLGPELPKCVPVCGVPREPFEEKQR
Description: (§1) An active inhibitor protects C2 from C1 and C4; (ii) Test Code 035 (C3-C9 inhibitor)--This test determines the ability of the late components of human complement (C3-C9) to lyse EAC 142 in the presence of appropriate dilutions of the test compound. An active inhibitor protects EAC 142 from lysis by human C3-C9; (iii) Test Code 036 (C-Shunt inhibitor)--In this test human erythrocytes rendered fragile are lysed in autologous serum via the shunt pathway activated by cobra venom factor in the presence of appropriate dilutions of the test compound. Inhibition of the shunt pathway results in failure of lysis; (iv) Forssman Vasculitis Test--Here, the well known complement dependent lesions, Forssman vasculitis, is produced in guinea pigs by intradermal injection of rabbit anti-Forssman antiserum. The lesion is measured in terms of diameter, edema and hemorrhage and the extent to which a combined index of these is inhibited by prior intraperitoneal injection of the test compound at 200 mg/kg is then reported, unless otherwise stated; (v) Forssman Shock Test--Lethal shock is produced in guinea pigs by an i.v. injection of anti-Forssman antiserum and the harmonic mean death time of treated guinea pigs is compared with that of simultaneous controls; (vi) Complement Level Reduction Test--In this test, the above dosed guinea pigs, or others, are bled for serum and the complement level is determined in undiluted serum by the capillary tube method of U.S. Pat. No. 3,876,376 and compared to undosed control guinea pigs; and (vii) Cap 50 Test--Here, appropriate amounts of the test compound are added to a pool of guinea pig serum in vitro, after which the undiluted serum capillary tube assay referred to above is run. The concentration of compound inhibiting 50% is reported, (viii) Guinea Pig Intraperitoneal Test (GPIP)--Guinea Pigs weighing about 300 g. are dosed intraperitoneally (i.p.) with 200 mg/kg of the test compound dissolved in saline and adjusted to pH 7-8. […] Percent inhibition are calculated by comparison with simultaneous controls. […]

[1] = system: late components of human complement (C3-C9); assay: Test Code 035 (C3-C9 inhibitor); type: biochemical; settings: lysis of EAC 142 by human C3-C9
Description: as §1

[2] = system: shunt pathway activated by cobra venom factor; assay: Test Code 036 (C-Shunt inhibitor); type: cell-based; settings: fragile human erythrocytes in autologous serum
Description: as §1

[3] = system: complement activity of sera; assay: Guinea Pig Intraperitoneal Test (GPIP); type: in vivo; settings: 200 mg/kg i.p.
Description: as §1

guinea pigs = assay: Forssman Shock Test; type: in vivo, guinea pig; settings: i.v. anti-Forssman antiserum, Control 3.3
Description: (§2) An active inhibitor protects C2 from C1 and C4; (ii) Test Code 035 (C3-C9 inhibitor)--This test determines the ability of the late components of human complement (C3-C9) to lyse EAC 142 in the presence of appropriate dilutions of the test compound. An active inhibitor protects EAC 142 from lysis by human C3-C9; (iii) Test Code 036 (C-Shunt inhibitor)--In this test human erythrocytes rendered fragile are lysed in autologous serum via the shunt pathway activated by cobra venom factor in the presence of appropriate dilutions of the test compound. Inhibition of the shunt pathway results in failure of lysis; (iv) Forssman Vasculitis Test--Here, the well known complement dependent lesions, Forssman vasculitis, is produced in guinea pigs by intradermal injection of rabbit anti-Forssman antiserum. […] Percent inhibition are calculated by comparison with simultaneous controls. […]

complement = complement inhibiting activity using the tests disclosed herein; settings: stated in words
Description: as §2

| Compound | 026 (C1 inhibitor), activity in wells (activated human C1) | 035 (C3-C9 inhibitor) [1] | 036 (C-Shunt inhibitor) [2] | In vivo activity (Guinea Pig) Intraperitoneal % Inhibition, 30 minutes ([3]; serum complement 30 minutes after injection) [%] | In vivo activity (Guinea Pig) Intraperitoneal % Inhibition, 60 minutes ([3]; serum complement 60 minutes after injection) [%] | In vivo activity (Guinea Pig) Intraperitoneal % Inhibition, 120 minutes ([3]; serum complement 120 minutes after injection) [%] | Forssman Shock (harmonic mean death time) (guinea pigs) [min] | complement inhibiting activity (complement) |
| --- | --- | --- | --- | --- | --- | --- | --- | --- |
| C[C@@H]1O[C@@H](OC[C@H]2O[C@@H](Oc3c(-c4ccc(O)c(O)c4)oc4cc(O)cc(O)c4c3=O)[C@H](O)[C@@H](O)[C@@H]2O)[C@H](O)[C@H](O)[C@H]1O [Rutin] | N | N | N |  |  |  |  |  |
| Rutin poly(H-)sulfate, trimethylamine salt | +2 wells | N | N |  |  |  |  |  |
| Rutin poly(H-)sulfate, sodium salt | +7 wells | N | N | -79 | -89 | -89 | 17.2 |  |
| Rutin poly(H-)sulfate, sodium salt (original source commercial `Rutin water soluble`) |  |  |  |  |  |  |  | highly active |
